Data reported in patent US7173025B1, “Aminoheterocyclic derivatives as antithrombotic or anticoagulant agents” (Zeneca Limited, priority 1996, dated 2007).
Structures can show the parent of a compound that is named as a salt.

Legend:
human Factor Xa = human Factor Xa (Homo sapiens, UniProt P00742); assay: Measurement of Factor Xa Inhibition (chromogenic substrate S-2765); format: biochemical; conditions: test a); read-out: IC50 against Factor Xa
Experimental: a) Measurement of Factor Xa Inhibition
An in vitro assay system was carried out based on the method of Kettner et al., J. Biol. Chem., 1990, 265, 18289-18297, whereby various concentrations of a test compound were dissolved in DMSO and diluted in a pH7.5 buffer containing 0.5% of a polyethylene glycol (PEG 6000) and incubated at 37° C. with human Factor Xa (0.001 Units/ml, 0.3 ml) for 15 minutes. The chromogenic substrate S-2765 (KabiVitum AB, 20 μM) was added and the mixture was incubated at 37° C. for 20 minutes whilst the absorbance at 405 nm was measured. The maximum reaction velocity (Vmax) was determined and compared with that of a control sample containing no test compound. Inhibitor potency was expressed as an IC50 value.

blood plasma = assay: Measurement of Anticoagulant Activity (in vitro prothrombin time test); set-up: species or system human, rat or rabbit; conditions: test c)
Experimental: c) Measurement of Anticoagulant Activity
An in vitro assay whereby human, rat or rabbit venous blood was collected and added directly to a sodium citrate solution (3.2 g/100 ml, 9 parts blood to 1 part citrate solution). Blood plasma was prepared by centrifugation (1000 g, 15 minutes) and stored at 2-4° C. Conventional prothrombin time (PT) tests were carried out in the presence of various concentrations of a test compound and the concentration of test compound required to double the clotting time, hereinafter referred to as CT2, was determined. In the PT test, the test compound and blood plasma were incubated at 37° C. for 10 minutes. Tissue thromboplastin with calcium (Sigma Limited, Poole, England) was added and fibrin formation and the time required for a clot to form were determined.

human thrombin = human thrombin (Homo sapiens, UniProt P00734); assay: Measurement of Thrombin Inhibition (chromogenic substrate S-2238); format: biochemical; conditions: test b); read-out: IC50 against thrombin
Experimental: b) Measurement of Thrombin Inhibition
The procedure of method a) was repeated except that human thrombin (0.005 Units/ml) and the chromogenic substrate S-2238 (KabiVitum AB, 7 μM) were employed.

Chain of human Factor Xa (P00742 235-488 limits assumed): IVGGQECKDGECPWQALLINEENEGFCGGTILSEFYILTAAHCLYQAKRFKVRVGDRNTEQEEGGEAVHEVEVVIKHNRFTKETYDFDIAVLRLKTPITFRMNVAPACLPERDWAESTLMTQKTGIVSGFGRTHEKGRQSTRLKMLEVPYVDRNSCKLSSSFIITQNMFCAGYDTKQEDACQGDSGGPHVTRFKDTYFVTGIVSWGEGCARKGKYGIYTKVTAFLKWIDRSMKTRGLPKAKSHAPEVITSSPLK
Chain of human Factor Xa (P00742 41-179 partner limits assumed): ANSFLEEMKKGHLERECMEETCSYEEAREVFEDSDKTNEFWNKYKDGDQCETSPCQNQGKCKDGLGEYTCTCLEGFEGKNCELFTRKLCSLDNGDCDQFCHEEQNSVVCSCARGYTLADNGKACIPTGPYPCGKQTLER

Row | melting point [°C] | SMILES | also measured
1 | 302 to 304 | O=S(=O)(Nc1ccc(OC2CCN(c3ccncc3)CC2)cc1)c1ccc(-c2ccc(Br)cc2)cc1 (as salt: hydrochloride) [Example 4, 4′-bromo-N-{4-[1-(4-pyridyl)piperidin-4-yloxy]phenyl}-4-biphenylylsulphonamide] | 
2 | 270 to 272 | Cc1ccc(S(=O)(=O)Nc2ccc(OC3CCN(c4ccncc4)CC3)cc2)cc1 (as salt: hydrochloride) [Example 7, N-{4-[1-(4-pyridyl)piperidin-4-yloxy]phenyl}-4-toluenesulphonamide] | 
3 | 293 to 295 | O=S(=O)(Nc1ccc(OCC2CCN(c3ccncc3)CC2)cc1)c1ccc(-c2ccc(Br)cc2)cc1 (as salt: hydrochloride) [Example 11, 4′-bromo-N-{4-[1-(4-pyridyl)piperidin-4-ylmethoxy]phenyl}-4-biphenylylsulphonamide] | 
4 | 167 to 169 | O=S(=O)(Nc1ccc(OCC2CCN(c3ccncc3)CC2)cc1)c1ccc2cc(Br)ccc2c1 (as salt: hydrochloride) [Example 12, 6-bromo-N-{4-[1-(4-pyridyl)piperidin-4-ylmethoxy]-phenyl}-2-naphthalenesulphonamide] | 
5 | 220 to 223 | O=S(=O)(/C=C/c1ccc(Cl)cc1)Nc1ccc(OCC2CCN(c3ccncc3)CC2)cc1 (as salt: hydrochloride) [Example 13, 4-chloro-N-{4-[1-(4-pyridyl)piperidin-4-ylmethoxy]phenyl}-(E)-styrylsulphonamide] | 
6 | 298 to 300 | O=S(=O)(Nc1cccc(OC2CCN(c3ccncc3)CC2)c1)c1ccc2cc(Br)ccc2c1 (as salt: hydrochloride) [Example 16, 6-bromo-N-{3-[1-(4-pyridyl)piperidin-4-yloxy]phenyl}-2-naphthalenesulphonamide] | 
7 | 147 to 150 | O=S(=O)(/C=C/c1ccc(Cl)cc1)Nc1cccc(OC2CCN(c3ccncc3)CC2)c1 (as salt: hydrochloride) [Example 21, 4-chloro-N -{3-[1-(4-pyridyl)piperidin-4-yloxy]phenyl}-(E)-styrylsulphonamide] | 
8 | 236 to 238 | O=S(=O)(c1ccc(S(=O)(=O)N2CCN(c3ccncc3)CC2)cc1)c1ccc2cc(Br)ccc2c1 (as salt: trifluoroacetate) [Example 25, 4-[4-(6-bromonaphth-2-ylsulphonyl)phenylsulphonyl]-1-(4-pyridyl)piperazine] | 
9 | 267 to 269 | O=C(c1ccc(S(=O)(=O)c2ccc3cc(Cl)ccc3c2)cc1)N1CCN(c2ccncc2)CC1 [Example 1, 1-[4-(6-chloronaphth-2-ylsulphonyl)benzoyl]-4-(4-pyridyl)piperazine] | IC50 (human Factor Xa): 13 nM; CT2 (PT), concentration of test compound required to double the clotting time (blood plasma): 5 µM; IC50 (human thrombin): > 40 µM
10 | 196 to 198 | Cc1ccc(S(=O)(=O)N(c2ccc(OC3CCN(c4ccncc4)CC3)cc2)S(=O)(=O)c2ccc(C)cc2)cc1 [Example 8, N-{4-[1-(4-pyridyl)piperidin-4-yloxy]phenyl}-N-(4-tolylsulphonyl)-4-toluenesulphonamide] | 
11 | 136 to 140 | O=S(=O)(c1ccc(-c2ccc(Br)cc2)cc1)N(c1ccc(OCC2CCN(c3ccncc3)CC2)cc1)S(=O)(=O)c1ccc(-c2ccc(Br)cc2)cc1 [Example 14, 4′-bromo-N-(4′-bromo-4-biphenylylsulphonyl)-N-{4-[1-(4-pyridyl)piperidin-4-ylmethoxy]phenyl}-4-biphenylylsulphonamide] | 
12 | 246 to 252 | O=S(=O)(c1ccc2cc(Br)ccc2c1)N(c1ccc(OCC2CCN(c3ccncc3)CC2)cc1)S(=O)(=O)c1ccc2cc(Br)ccc2c1 [Example 15, 6-bromo-N-(6-bromonaphth-2-ylsulphonyl)-N-{4-[1-(4-pyridyl)piperidin-4-ylmethoxy]phenyl}-2-naphthalenesulphonamide] | 
13 | 197 to 200 | O=S(=O)(Nc1ccccc1OCC1CCN(c2ccncc2)CC1)c1ccc2cc(Br)ccc2c1 [Example 20, 6-bromo-N-{2-[1-(4-pyridyl)piperidin-4-ylmethoxy]phenyl}-2-naphthalenesulphonamide] | 
14 | 180 to 183 | O=S(=O)(c1ccc(OC2CCN(c3ccncc3)CC2)cc1)c1ccc2cc(Br)ccc2c1 [Example 22, 4-[4-(6-bromonaphth-2-ylsulphonyl)phenoxy]-1-(4-pyridyl)piperidine] | 
15 | 210 to 213 | O=C(c1ccc(Sc2ccc3cc(Br)ccc3c2)cc1)N1CCN(c2ccncc2)CC1 [Example 27, 1-[4-(6-bromonaphth-2-ylthio)benzoyl]-4-(4-pyridyl)piperazine] | 
